From patent US5272151A, “Aminoacyl and oligopeptidyl derivatives of allopurinol exhibiting immunostimulatory activity, and pharmaceutical formulations containing these substances” (Sigma-Tau Industrie Farmaceutiche Riunite S.p.A., priority 1991, dated 1993)
Read-outs that look alike come from different tables or passages of the source.

Experiments:
Sarcoma 180 = assay: Protective effect in mice carrying Sarcoma 180; type: in vivo; conditions: for % survival: CD1 mice carrying Sarcoma 180; for % survival / Died/Total / MST (Mean Survival Time; median): 25 mg/kg/d i.p. day +1 through +10; for Died/Total / MST (Mean Survival Time; median): CD1 mice, 1×10^4 Sarcoma 180 cells i.p.; for MST (Mean Survival Time; median): 25 mg/kg/day; for Body weight (x ± S.E.) of Sarcoma 180-carrying animals: 25 mg/kg/d i.p., in g
Protocol: Evaluation of the protective effect of ST 689 and ST 789 in tumour-carryingmice,
Outbred male CDI mice (Charles River, Italy), 7 weeks old, were used. Experimental groups containing 10 animals were inoculated i.p. with 1×10^4 Sarcoma 180 cells (ATCC, Rockville, Md., U.S.A.) in 0.1 mL of TC 199 medium. The compounds were administered intraperitoneally in 0.2 mL of sterile physiological solution at daily doses of 25 mg/kg from day +1 through day +10 relative to the day of tumour transplant (day 0). In addition, body weights of the animals were followed from day 0 through day 20. The weights of the animals can be indicative of the development of neoplastic processes. The activity of the compounds was evaluated in terms of % survival expressed as the Mean Survival Time (MST). The data reported in Table 4 indicate a substancial protective effect of ST 689 compared to ST 789 vis-a-vis % survival (20% vs. 10%) in terms of MST (21 vs. 17).

IL-2 = assay: In vitro-ex vivo production of IL-2 by rat splenocytes (CTLL-2 bioassay); conditions: for IL-2 in supernates from rat splenocytes: ConA-stimulated splenocytes, 48 h, 25 mg/kg daily i.p. day -5 through day -1
Protocol: In vitro-ex vivo effect of ST 689 and ST 789 on the production of IL-2 by rat splenocytes.
Male Fisher rats (Charles River, Italy), 3 months old, in experimental groups of 5 animals, were treated with the substances at daily dosages of 25 mg/kg from day -5 through day -1 relative to the day the spleens were sampled (day 0). The experimental procedure employed was that reported in [1]. To suspensions of splenocytes, prepared in RPMI 1640 with 10% FCS+1×10^-5 M β-mercaptoethanol and standardised to a concentration of 1×10^7 cells/mL, were added equal volumes of ConA at a concentration of 18 μg/mL/well. After incubating for 48 h at 37° C. in the presence of 5% CO2 the samples were centrifuged and the supernates collected. Serial dilutions of the supernates were added to CTLL-2 cells (a line of T-cells requiring IL-2 for growth) standardised at 5×10^4 cells/mL. Following an overnight incubation, the samples were labelled with ^3 H--TdR (0.5 μCi/well)for 6 h, then the cells were collected on filters using a cell harvester, and counted (cpm) using a β-counter. The results are expressed in units of IL-2, comparing the counts in the samples to a standard curve prepared with purified IL-2 . . . ls1.

E. coli = assay: Protective effect in experimentally-infected immunosuppressed mice (E. coli); type: in vivo; conditions: cyclophosphamide-immunodepressed CD1 mice; 25 mg/kg/d i.p. day -5 through day -1; challenge day 0
Excerpt: Evaluation of the protective effects of ST 689 and ST 789 in experimentally-infected immunosuppressed mice.
Male CDl mice (Charles River, Italy), 6-10 weeks old, were used in experimental groups of 9-20 animals. Systemic infection in the mice was achieved by intrapcritoncal inoculation of a pathogenic species of Klebsiclla (K. oxytoca), Proteus (P. mirabilis), Serratia (S. marcescens),and Hscherichia (E. coli). Eighteen-hour broth cultures were used to prepare infectious inocula that were either sublethal (Proteus) or which corresponded to an LD30 (Serratia) and an LD10 (Escherichia, Klebsiella). The bacterial challenge, inoculated i.p. in 0.5 mL of 5% gastric mucin, was designed to cause the death of animals immunodepressed with cyclophosphamide (administered i.p. in 0.2 mL of sterile physiological solution at a dosage of 100 mg/kg) 5 days prior to infection. The compounds were administered i.p. at daily doses of 25 mg/kg from day -5 to day -1 with respect to the day of bacterial inoculation (day 0). The results are expressed as % mortality and were statistically analysed using Fisher's test (Biostatistics in Pharmacology, vol. 2, Pergamon Press).

[1] = test system: mouse peritoneal exudate cells (PECs); assay: In vitro-ex vivo phagocytic activity of mouse peritoneal exudate cells (PECs); conditions: for % Phagocytic cells: % of cells that had phagocytosed relative to potential phagocytes in PECs; for % Phagocytic cells / SRBC phagocytosed / SRBC per phagocyte: 25 mg/kg daily i.p. day -5 through day -1; for SRBC phagocytosed: average number of SRBC phagocytosed by 100 potential phagocytes; for SRBC per phagocyte: average number of SRBC phagocytosed per phagocyte
Protocol: In vitro-ex vivo effects of ST 689 and ST 789 on phagocytic activity of mouse peritoneal exudate cells (PECs).
Male B6 D2 F1 mice (Charles River, Italy), 6 weeks old, in experimental groups of 5 animals, were treated with the above substances i.p. at daily doses of 25 mg/kg from day -5 through day -1 relative to the day the PECs were sampled (day 0). The experimental procedure followed those described in [1] and [2]; briefly, the animals in each group were asphyxiated with CO2, the peritoneal cavities repeatedly washed, and the PECs recovered from each experimental group pooled and standardised to 4×10^6 cells/mL. Aliquots (250 μL) of phagocyte suspension were added to equal volumes of 0.4% SRBC that had been appropriately opsonised with hyperimmune serum. The samples, prepared in duplicate, were incubated for 1 h and then osmotically shocked to eliminate non-phagocytosed erythrocytes. After adjusting the osmolarity to normal values, the phagocytes were centrifuged and differentially stained. Microscopic counts of cells with phagocytic capabilities and of phagocytosed SRBC in fields of 200 cells were performed in triplicate. The results are expressed as % phagocytic cells, the average number of SRBC phagocytosed per phagocyte, and the total number of SRBC phagocytosed per 100 phagocytes.

[2] = test system: CEM-CM3 human leukaemic lymphoblasts; assay: In vitro-ex vivo cytostatic activity of mouse peritoneal macrophages towards tumour targets; conditions: for inhibition at 25 mg/kg: Mus musculus, Peritoneal macrophage
Protocol: In vitro-ex vivo effects of substances ST 689 and ST 789 on the cytostatic activity of mouse peritoneal macrophages (MO) towards tumour targets.
Male B6 D2 F1 mice (Charles River, Italy), 7 weeks old, 5 animals per experimental group, were treated with the above substances i.p. at daily dosages of 25 mg/kg from day -5 through day -1 relative to the day of macrophage sampling (day 0). The tumour target, CEM--CM3 human leukaemic lymphoblasts, was admixed with adherent Mo so as to have two different precisely-measured effector:target ratios, viz. 10:1 and 20:1. Each sample, prepared in triplicate in flat-bottom microliter wells, was labelled with ^3 H--TdR (0.05 μCi) by incubation for 18 h at 37° C. The tumour cells from each well were collected on filters, counted in a β-counter, and the % inhibition of tumour target growth determined using the formula. [formula]

[3] = day +13, number in parentheses = animals still alive
[4] = day +15, number in parentheses = animals still alive
[5] = day +17, number in parentheses = animals still alive
[6] = day +20, number in parentheses = animals still alive

| SMILES | % survival (Sarcoma 180) [%] | Died/Total (Sarcoma 180) | MST (Mean Survival Time; median) (Sarcoma 180) | Body weight (x ± S.E.) of Sarcoma 180-carrying animals (Sarcoma 180; day 0) | Body weight (x ± S.E.) of Sarcoma 180-carrying animals (Sarcoma 180; day +1) | Body weight (x ± S.E.) of Sarcoma 180-carrying animals (Sarcoma 180; day +3) | Body weight (x ± S.E.) of Sarcoma 180-carrying animals (Sarcoma 180; day +6) | Body weight (x ± S.E.) of Sarcoma 180-carrying animals (Sarcoma 180; day +8) | Body weight (x ± S.E.) of Sarcoma 180-carrying animals (Sarcoma 180; day +10) | Body weight (x ± S.E.) of Sarcoma 180-carrying animals (Sarcoma 180; [3]) | Body weight (x ± S.E.) of Sarcoma 180-carrying animals (Sarcoma 180; [4]) | Body weight (x ± S.E.) of Sarcoma 180-carrying animals (Sarcoma 180; [5]) | Body weight (x ± S.E.) of Sarcoma 180-carrying animals (Sarcoma 180; [6]) | IL-2 in supernates from rat splenocytes (IL-2) [U/mL] | % Mortality, E. coli (E. coli) [%] | % Phagocytic cells [1] [%] | SRBC phagocytosed [1] | SRBC per phagocyte [1] | further results |
| --- | --- | --- | --- | --- | --- | --- | --- | --- | --- | --- | --- | --- | --- | --- | --- | --- | --- | --- | --- |
| N=C(N)NCCC[C@H](NC(=O)OCCCCCn1cnc2c(=O)[nH]cnc21)C(=O)O [ST 789, N-alfa-5-(hypoxanthin-9-yl)-pentyloxycarbonylarginine, reference compound] | 10 | 9/10 | 17 | 22.8 ± 0.30 | 23.6 ± 0.34 | 24.8 ± 0.30 | 27.6 ± 0.46 | 29.5 ± 0.64 | 31.5 ± 0.92 | 32.2 ± 0.96 | 33.4 ± 1.05 | 33.7 ± 1.46 | 34.8 ± 3.90 | 98.43 ± 4.47 | 20 | 31.5 ± 0.5 | 152.5 ± 9.5 | 4.85 ± 0.25 | Growth inhibition of the CEM-CM3 cell line, in words ([2]; 25 mg/kg daily i.p.): definite increase in growth inhibition; % Growth Inhibition 10:1 ([2]; effector:target ratio 10:1, 25 mg/kg daily day -5 through day -1): 15.85 ± 3.33%; % Growth Inhibition 20:1 ([2]; effector:target ratio 20:1, 25 mg/kg daily day -5 through day -1): 30.31 ± 5.19% |
| O=c1[nH]cnc2c1cnn2CCCCCO [ST 689, 1,5-dihydro-1-(5-hydroxypentyl)-4H-pyrazolo-[3,4-d]-pyrimidin-4-one] | 20 | 8/10 | 21 | 23.0 ± 0.38 | 23.7 ± 0.34 | 24.5 ± 0.50 | 27.1 ± 0.62 | 28.3 ± 0.97 | 28.4 ± 0.81 | 28.6 ± 0.89 | 30.5 ± 1.28 | 32.5 ± 1.70 | 32.6 ± 1.85 | 183.25 ± 22.55 | 40 | 42.5 ± 0.5 | 229.5 ± 34.5 | 5.40 ± 0.90 | Neoplastic proliferation judged from body weights, in words (Sarcoma 180; compared to animals treated with ST 789): diminution of neoplastic proliferation; Production of IL-2 by splenocytes, in words (IL-2; compared to the same dosage of ST 789): increase in the production of IL-2; Effect on the phagocytic capabilities of PECs, in words ([1]; 25 mg/kg daily i.p.): extremely positive effect; inhibition at 25 mg/kg ([2]; effector:target ratio 10:1, 25 mg/kg daily day -5 through day -1, read-out: % Growth Inhibition 10:1): 32.8 ± 1.84%; inhibition at 25 mg/kg ([2]; effector:target ratio 20:1, 25 mg/kg daily day -5 through day -1, read-out: % Growth Inhibition 20:1): 48 ± 5.46% |
